According to US20230020507A1, “COMPOUND AND USE THEREOF IN TREATING AUTOIMMUNE DISEASES” (PARENCHYMA BIOTECH INC., priority 2019, published 2023):

Experiments:
[1] = system: C57BL/6 mice with DSS-induced inflammatory bowel disease; assay: DSS-induced inflammatory bowel disease model, severity index and colon weight:length ratio; format: in vivo, mouse; details: 20 mg/kg oral daily, compared to solvent control
Procedure: The 1.5% DSS solution was changed at an interval of 2 days. Sterile distilled water was provided for drinking from the 8th day of the experiment. Body weight and severity index were measured at an interval of 2 days from the 0th day of the experiment in order to confirm the onset of inflammatory bowel disease.
20 mg/kg of the compound per mouse was completely dissolved in DMSO corresponding to 10% (v/v) of the administered dose, and then diluted in a cremophor EL-phosphate buffered saline mixture in order to produce the final DMSO:Cremophor EL:phosphate buffered saline (1:1:8, v/v/v), followed by oral administration of 200 μl daily for a total of 10 times from the 2nd to 11th days of the experiment. An inflammatory bowel disease severity index was visually observed and recorded at an interval of 2 days according to a severity index system classified into 0 to 10 levels.
Inflammatory bowel disease symptoms were evaluated by summing the scores of three items according to the following items (Table 3).

[2] = system: Foxp3+ regulatory T cells; assay: In vitro regulatory T cell (Foxp3+ Treg) production from human peripheral blood CD4 T cells; format: cell-based; details: anti-CD3/anti-CD28, TGFβ-1, IL-2, 2.5 μM, 7 days
Procedure: Human peripheral blood (AllCells) and phosphate buffered saline (PBS) were mixed in a ratio of 1:1 to prepare a mixture, followed by allowing the mixture to slowly rise so as not to be mixed into the upper layer of Histopaque (Sigma). After centrifugation at 350 g for 20 minutes, only the monocyte layer in the middle layer was collected and washed with HBSS (Hanks' Balanced Salt Solution, Gibco®). After washing with MACS buffer (Miltenyi Biotec) once more to obtain T-cells, positive selection (autoMACS seperator, Miltenyi Biotec) was performed with CD4 Microbeads (Miltenyi Biotec). The T-cells collected by the above method were prepared by resuspending the cells in RPMI-fetal bovine serum (FBS) 10%+2-ME (mercaptoethanol) medium at 5×10^5/ml. For T-cell activation, 10 μg/ml anti-CD3 (eBioscience™) was dispensed by 150 μl into a 48-well plate, reacted in a cell incubator (37° C., 5% CO2 incubator) for 3 hours, and washed with phosphate buffered saline to prepare the plate. 250 μl of resuspended T-cells was dispensed onto the prepared plate, and each well was treated with 2 μg/ml of anti-CD28 (eBioscience™), 5 ng/ml of TGFβ-1 (R&D systems), and 50 U/ml of IL-2 (Miltenyi Biotec). Each 5 μl of compounds at a concentration of 2.5 μM diluted in RPMI+2ME medium was used for treatment, followed by culturing the same in a cell incubator (37° C., 5% CO2 incubator) for 7 days. As a control, 5 μl of 0.05% dimethylsulfoxide (DMSO)/RPMI medium was used for treatment. After 7 days, in order to confirm effects of producing regulatory T cells, the cultured cells were recovered to determine the presence of Foxp3 protein.
The recovered cells were placed in a 5 ml FACS tube (BD Falcon) and washed with 1 ml of phosphate buffered saline. The cells were resuspended in 0.1 ml of FACS buffer (0.1% NaN3, 1% FBS) and treated with 1 μg of human immunoglobulin G (Human IgG, Sigma) to prevent non-specific binding of the antibody. After reacting at 4° C. for 15 minutes, the cells were washed with FACS buffer. Then, 1 ml of Fixation/Permeabilization solution (eBioscience™) was added to the FACS tube containing each sample, followed by reaction at 4° C. for 1 hour. Thereafter, the product was washed twice with a Permeabilization buffer (eBioscience™). Then, 0.25 μg of Foxp3 monoclonal antibody (eBioscience™) was used for treatment, followed by staining the sample for 4 to 30 minutes. The cells were washed twice with the permeabilization buffer, suspended in 0.3 ml of FACS buffer, and measured by flow cytometry.

[3] = system: C57BL/6 mice with autoimmune encephalomyelitis (EAE); assay: Experimental autoimmune encephalomyelitis (EAE) model of multiple sclerosis, severity index; format: in vivo, mouse; details: 20 mg/kg intraperitoneally daily 12th to 17th day
Procedure: On day 0, myelin oligodendrocyte glycoproteins 35-55 (MOG 35-55, Peptron) (200 μg), heat-killed Mycobacterium tuberculosis (Difco, Cat No. 231141) (500 μg), and adjuvant (Complete Freund's adjuvant, Sigma Aldrich, Cat No. F5506) were mixed together and then submerged for 7 minutes. After subcutaneous injection of 100 μl of the submerged peptide into both flanks of each of C57BL/6 mice (7 weeks old, female, 17±2 g), 100 μl of pertussis toxin (Sigma Aldrich. Cat No. P2980) (200 ng) was administered intravenously to the tail.
On the 2nd day of the experiment, the same amount of pertussis toxin was administered intravenously. The mice were checked for immersion leaking from the injected site, and visually observed from the 7th day of the experiment in order to confirm the onset of multiple sclerosis.
The multiple sclerosis index was visually observed and recorded at an interval of 2 days from the 7th day of the experiment in the severity index system classified into 0-5 stages, and autoimmune encephalomyelitis symptoms were indexed according to the following items (see Table 4).

[4] = system: C57BL/6 mice with DSS-induced inflammatory bowel disease; assay: Mucosal healing (intestinal epithelial barrier integrity) with FITC-dextran in DSS mice; format: in vivo, mouse; set-up: dose or concentration left out as unconfirmed; details: oral daily 2nd to 9th day, 10th day, 4 hours after FITC-dextran, compared to solvent control
Excerpt: The 1.5% DSS solution was changed at an interval of 2 days. Sterile distilled water was provided for drinking from the 8th day of the experiment.

[5] = system: IL-1β, IL-6, IL-17A, TNF-α, IL-10 and Foxp3 expression in colon lesions; assay: mRNA expression of inflammatory and immunomodulatory factors in colon of DSS mice (real-time PCR); format: in vivo, mouse; details: 20 mg/kg oral, 15th day, compared to solvent control
Excerpt: On the 15th day of the experiment, the colon of the mouse was excised to prepare an mRNA sample. In order to extract mRNA, the colon tissue was ground with a homogenizer to acquire a homogeneous suspension. […] From the isolated RNA, cDNA was synthesized by reverse transcription followed by confirming the expression of inflammatory cytokines through real-time polymerase chain reaction (PCR) using iQ SYBR-Green Supermix (Bio-rad) in the CFX96 (Bio-rad) detection system. Relative values of the enzyme expression levels were compared by the ΔΔct method using GAPDH as a control enzyme. Herein, one (1) fold was set using the normal mouse colon as a control.
The real-time polymerase chain reaction was implemented under the conditions of cycles at an annealing temperature of 58′° C. and the following primer sequences were used.

[6] = scale 0-5, solvent control 3.33±0.17

O=C(Cc1c[nH]c2ccc(Cl)cc12)Nc1ccc(Cl)c(F)n1 [Compound 26, 2-(5-chloro-1H-indol-3-yl)-N-(5-chloro-6-fluoropyridin-2-yl)acetamide]
inflammatory bowel disease severity index ([1]; 2nd to 11th day, 10th day of the experiment): statistically significant therapeutic effects
colon weight:length ratio (intestinal inflammation) ([1]; 15th day of the experiment): significantly suppressed
generation of Foxp3+ regulatory T cells [2]: promoted
treatment effects on EAE severity index compared to solvent control from the 16th day, maintained after administration was stopped [3]: statistically significant treatment effects
severity index (EAE), 18th day, acute reaction period [3, 6]: 1.33±0.56
severity index (EAE), 36th day, chronic reaction period [3, 6]: 1.33±0.22
Serum FITC-dextran [4]: significantly reduced
expression level of Foxp3 in the colon lesion [5]: significantly increased
expression level of IL-1β in colon lesions [5]: significantly reduced
expression level of IL-6 in colon lesions [5]: significantly reduced
expression level of IL-10 in the colon lesion [5]: significantly increased
expression level of IL-17A in colon lesions [5]: significantly reduced
expression level of TNF-α in colon lesions [5]: significantly reduced
